According to patent US9770526B2, “Absorbent article” (priority 2011, dated 2017):
Like-named read-outs stand apart in the source and are kept apart here.

Tests used:
[1] = Water solubility in 100 g of water at 25° C.
Excerpt: As used herein, the term “solubility” in regard to water solubility includes cases where the sample completely dissolves in deionized water to form a homogeneous mixture, and cases where the sample is completely emulsified. As used herein, “completely” means that no mass of the sample remains in the deionized water.

[2] = Absorbent body migration rate; conditions: Example 2: agent coated on top sheet only, about 5 g/m^2; horse EDTA blood
Protocol: In addition to the rewetting rate evaluation, the “absorbent body migration rate” was also measured as the time until migration of blood from the top sheet to the absorbent body after the second dropping of blood. The absorbent body migration rate is the time from […].

[3] = Rewetting rate of sanitary napkin; conditions: Example 2: agent coated on top sheet only, about 5 g/m^2; horse EDTA blood
Protocol: (obtained by adding ethylenediaminetetraacetic acid (hereunder, “EDTA”) to horse blood to prevent coagulation) was dropped through the hole using a pipette (once), and after 1 minute, 3 g of horse EDTA blood at 37±1° C. was again added dropwise through the acrylic board hole with a pipette (twice).
After the second dropping of blood, the acrylic board was immediately removed and 10 sheets of filter paper (50 mm×35 mm) were placed on the location where the blood had been dropped, and then a weight was placed thereover to a pressure of 30 g/cm^2. After 1 minute, the filter paper was removed and the “rewetting rate” was calculated by the following formula. Rewetting rate (%)=100×(filter paper mass after test−initial filter paper mass)/6

[4] = Surface tension of blood containing blood modifying agent (pendant drop method); design: species or system sheep; conditions: Amount 0.10 mass %; measuring temperature 35° C.
Protocol: The surface tension of blood containing a blood modifying agent was measured by the pendant drop method, using a Drop Master500 contact angle meter by Kyowa Interface Science Co., Ltd. The surface tension was measured after adding a prescribed amount of blood modifying agent to sheep defibrinated blood, and thoroughly shaking. The measurement was accomplished automatically with a device, and the surface tension γ was determined by the following formula (see FIG. 8). γ=g×ρ×(de)^2×1/H The density ρ was measured at the temperatures listed in Table 6, according to JIS K 2249-1995, “Density test methods and density/mass/volume conversion tables”, “5. Vibrating density test method”. The measurement was accomplished using a DA-505 by Kyoto Electronics Co., Ltd.

Row | Compound | Water solubility [1] | Absorbent body migration rate [2] | Rewetting rate (%) [3] | further results
1 | Polypropylene glycol [No. 2-20] | <0.05 g |  |  | 
2 | Polypropylene glycol [No. 2-35] |  |  |  | Water solubility (g) [1]: 0.05< g
3 | CCCCCCCC(=O)OCC(COC(=O)CCCCCCC)OC(=O)CCCCCCC [No. 2-8, Glycerin and fatty acid triester with octanoic acid (C8) as the entire fatty acid portion] |  | 3 s | 0.3% | Water solubility ([1]; in 100 g of water at 25° C., 24 hours, visual): <0.05 g
4 | Glycerin and fatty acid triester with 2-ethylhexanoic acid (CO as the entire fatty acid portion [No. 2-9] |  | 3 s | 2.0% | 
5 | CCCCCCCCCCCCOC(=O)CCCCCCCCCCC [No. 2-17, Ester of dodecanoic acid (C12) and dodecyl alcohol (C12)] |  | 5 s | 1.8% | Surface tension (mN/m) [4]: 58.8 mN/m
6 | Glycerin and fatty acid diester with octanoic acid as the fatty acid [No. 2-12] |  | 9 s | 4.2% | 
7 | Isopropyl citrate [No. 2-34] |  | 5 s | 12.2% | 
8 | CCCCCCCCCCCCCC(=O)OCCCCCCCCCCCC [No. 2-18, Ester of tetradecanoic acid (C14) and dodecyl alcohol (C12)] |  | 4 s | 1.8% | 
9 | Polypropylene glycol [No. 2-19] | <0.05 g |  |  | 
10 | CCCCCCCCCCCC(=O)OCC(O)CO (stereo not drawn) [No. 2-31, lauric acid monoglyceride] |  |  | 6.2% | 
11 | CCCCCCCCOC(=O)CCCCC(=O)OCCCCCCCC [No. 2-16, Dioctyl adipate] |  | 6 s | 1.7% | 
12 | Polypropylene glycol [No. 2-22] | <0.05 g |  |  | 

The next lines start with results.

Row | Water solubility [1] | Compound | Absorbent body migration rate [2] | Rewetting rate (%) [3] | further results
13 | <0.05 g | CCCCC(CC)C(=O)OCC(C)(C)COC(=O)C(CC)CCCC (stereo not drawn) [No. 2-15, Neopentylglycol di-2-ethylhexanoate] | 5 s | 2.0% | 
14 | <0.05 g | Polyoxybutylenepolyoxypropylene glycol [No. 2-24] |  |  | 
15 | <0.05 g | Polypropylene glycol [No. 2-21] |  |  | 
16 | <0.05 g | Polybutylene glycol [No. 2-23] |  |  | 
